Measured values reported in US4677069A, “Clam derived proteinases” (priority 1984, dated 1987).
Counter-ions that a name gives are not always drawn. *1 amine or outer side, *2 acyl side, *3 side chain or, on linkers, in order; H or OH if unused. Where a SMILES comes first, the peptide text is derived from it. [ ]: non-standard residue; d: D form. The star is where a group is joined. Sta = CC(C)C[C@H](N)[C@@H](O)CC(=O)O; Isovaleryl = CC(C)CC(=O)*; CO = O=C([*:1])[*:2]

Columns and labels:
[1] = system: PIII; assay: Heavy metal effect on proteolytic activity of PIII; assay type: biochemical, surf clam, Spisula solidissima; settings: for effect of metal ion on PIII: general assay procedure; for PIII % Retention / PIII Activity (HU/ml): metal ions 0.5 mM, pH 2.8; for PIII Activity (HU/ml): control 258.7
Experimental: (§1) The effect of heavy metals on proteolytic activity was determined by preincubating a mixture of 5 mM heavy metal stock solution (0.3 ml), 0.2M citrate-phosphate buffer at pH 2.8 (1.6 ml) and enzyme solution (0.1 ml) at room temperature for 10 min before the addition of substrate. All stock solutions of metals were made from chloride salts, except that silver was prepared from the nitrate salt.

[2] = system: PI & II; assay: Heavy metal effect on proteolytic activity of PI & II; assay type: biochemical, surf clam, Spisula solidissima; settings: for PI & II % Retention / PI & II Activity (HU/ml): metal ions 0.5 mM, pH 2.8; for PI & II Activity (HU/ml): control 214.7
Experimental: as §1

[3] = cited from earlier work; for Optimum pH: Table 7, literature
[4] = system: P2.2 enzyme; assay: Stabilization of P2.2 activity with reducing and chelating agents; settings: EDTA or cysteine alone
[5] = system: PIII; assay: Inhibitor effect on proteolytic activity of PIII; assay type: biochemical, surf clam, Spisula solidissima
Experimental: The effect of inhibitors on proteolytic activity was determined by preincubating a mixture of inhibitor stock solution (0.05 ml), 0.2M citrate-phosphate buffer at pH 2.8 (1.7 ml) and enzyme solution (0.25 ml) for 10 min at room temperature before the addition of substrate. All inhibitors were from Sigma Co. (St. Louis, MO). The stock solutions were prepared by dissolving the inhibitors either in water or dimethyl sulfoxide (DMSO) as following:
(§2) Water--Leupeptin hemisulfate (60 ug/ml), Antipain (60 ug/ml), Poly-L-lysine(60 mg/ml), soybean trypsin inhibitor (60 mg/ml), ovomucoid trypsin inhibitor (60 mg/mL), Tosyl-lysine chloromethyl ketone (TLCK, 60 mM) and iodoacetamide (60 mM).
(§3) DMSO--Pepstatin (60 ug/ml), Tosyl-phenylalanine chloromethyl ketone (TPCK, 60 mM), Phenylmethanesulphonylfluoride (PMSF, 60 mM), and Diazoacetylnorleucine methyl ester (DNME, 60 mM).

[6] = system: PI & II; assay: Inhibitor effect on proteolytic activity of PI & II; assay type: biochemical, surf clam, Spisula solidissima
Experimental: All inhibitors were from Sigma Co. (St. Louis, MO). The stock solutions were prepared by dissolving the inhibitors either in water or dimethyl sulfoxide (DMSO) as following:
as §2, §3

[7] = Milk clotting time determination; assay type: biochemical
Experimental: (§4) The clotting activity of milk coagulants was determined according to the method of Berridge, with modifications (1952, The Analyst, 77: 57). To 0.05 ml (unless otherwise mentioned) of milk coagulant placed in a 25-ml test tube was added 10 ml of tempered substrate solution. The substrate solution was 10% reconstituted skim milk powder containing 10 mM CaCl2. The pH of this substrate solution was approximately 6.2. Where indicated, the pH of the substrate solution was adjusted with 0.5 N NaOH or HCl while agitating. The mixture of coagulant and substrate was then incubated at 30° C. water bath unless specifically indicated. Near the expected clotting time, which was determined by a preliminary test, the test tube was tilted ~60° at an interval of 5 seconds. The moment of the first flake appearance of the liquid flowing down the tube was recorded as milk clotting time.

[8] = system: casein; assay: Relative ratio of clotting to proteolytic activity, casein; assay type: biochemical; settings: 30° C., pH 6.2 of milk clotting assay, calf rennet = 1.00
Experimental: as §4
(§5) Milk coagulants were assayed for proteolytic activity according to the method described in Example 1.
(§6) The ratio of milk clotting activity to proteolytic activity against hemoglobin is often used to assess the suitability of enzymes as rennet substitute (Green, 1972, supra). Clam rennet had considerably lower ratio of clotting to […] activity at optimum pH of each individual enzyme. […]

[9] = system: Hemoglobin; settings: pH 2.0, 37° C., Sigma lot; cited from earlier work
[10] = system: Hemoglobin; assay: Relative ratio of clotting to proteolytic activity, hemoglobin; assay type: biochemical; settings: 30° C., optimum pH of each enzyme (in parentheses), calf rennet = 1.00
Experimental: as §4, §5, §6

[11] = 1 ug/ml, pH 2.8, 10 min preincubation

| Molecule | PIII % Retention [1] [%] | PIII Activity (HU/ml) [1] [HU/ml] | PI & II % Retention [2] [%] | PI & II Activity (HU/ml) [2] [HU/ml] | Optimum pH [3] | other results |
| --- | --- | --- | --- | --- | --- | --- |
| [Sn+2] [Sn++] | 83.7 | 216.5 | 88.8 | 190.6 |  | effect of metal ion on PIII [1]: inhibits PIII slightly |
| Elastase |  |  |  |  | 8.2-8.5 |  |
| [Cd+2] [Cd++] | 96.4 | 249.4 | 96.3 | 206.7 |  |  |
| O=C(O)CN(CCN(CC(=O)O)CC(=O)O)CC(=O)O [Na2 --EDTA] |  |  |  |  |  | optimum concentration for stabilizing P2.2, reagent alone [4]: 10 mM |
| CC(C)[C@H](NC(=O)[C@H](CCCNC(=N)N)NC(=O)N[C@@H](Cc1ccccc1)C(=O)O)C(=O)N[C@H](C=O)CCCNC(=N)N [Antipain di-HCl] ({Phe-CO}-Arg-Val-Arg-aldehyde) |  |  |  |  |  | % Residual activity PIII, final conc. 1 ug/ml [5, 11]: 89.7%; % Residual activity PI & II, final conc. 1 ug/ml [6, 11]: 102.9% |
| Poly-L-lysine |  |  |  |  |  | % Residual activity PIII, final conc. 1 ug/ml ([5]; pH 2.8): 101.1%; % Residual activity PI & II, final conc. 1 ug/ml ([6]; pH 2.8): 99.3% |
| Cathepsin D: mammalian carboxyl proteinase, literature comparator |  |  |  |  | 2.8-5.0 | Activators, mammalian cathepsins ([3]; Table 11, literature): none; Temperature optima, mammalian cathepsins ([3]; Table 11, literature): 45 °C; pH optima hemoglobin, mammalian cathepsins ([3]; Table 11, literature): 2.8-3.5; pH stability, mammalian cathepsins ([3]; unstable at pH > 7, literature): unstable |
| CC(=O)N[C@@H](CC(C)C)C(=O)N[C@@H](CC(C)C)C(=O)N[C@H](C=O)CCCNC(=N)N [Leupeptin hemisulfate] |  |  |  |  |  | effect of inhibitor on PIII [5]: inhibited; % Residual activity PIII, final conc. 1 ug/ml [5, 11]: 33.4%; % Residual activity PI & II, final conc. 1 ug/ml [6, 11]: 96.5% |
| [Ni+2] [Ni++] | 92.5 | 239.4 | 96.0 | 206.0 |  |  |
| Cc1ccc(S(=O)(=O)NC(CCCCN)C(=O)CCl)cc1 (stereo not drawn) [TLCK, tosyllysine chloromethyl ketone] |  |  |  |  |  | effect of inhibitor on PIII [5]: inhibited; % Residual activity PIII, final conc. 1 mM ([5]; pH 2.8, 10 min preincubation): 16.8%; % Residual activity PI & II, final conc. 1 mM ([6]; pH 2.8, 10 min preincubation): 96.2% |
| Chymotrypsin |  |  |  |  | ~ 8.0 |  |
| Trypsin |  |  |  |  | ~ 8.0 |  |
| Porcine pepsin: two-time crystallized and lyophilized powder of porcine pepsin (Sigma Co.) |  |  |  |  |  | Linear regression X-Intercept (Table 17) ([7]; 1/tc vs C, equation 3-3): 0.0019; Linear regression Y-Intercept (Table 17) ([7]; 1/tc vs C, equation 3-3): -0.00013; Linear regression Slope (Table 17) ([7]; 1/tc vs C, equation 3-3, FIG. 7): 0.06597; Linear regression Slope (Table 16) ([7]; clotting time tc vs 1/C, equation 3-2): 16.5; milk clotting at pH 6.8 or above ([7]; milk pH 6.8 or above): unable to clot milk; Linear regression X-Intercept (Table 16) ([7]; tc vs 1/C, equation 3-2): 1.9; Linear regression Y-Intercept (Table 16) ([7]; tc vs 1/C, equation 3-2): -8.7; relative ratio of clotting to proteolytic activity, Casein [8]: 0.24; specification of the pepsin lot [9]: 2900 units/mg solid; relative ratio of clotting to proteolytic activity, Hemoglobin [10]: 0.30 |
| [Hg+2] [Hg++] | 0.0 | 0.0 | 87.1 | 187.0 |  | effect of metal ion on PIII [1]: extremely sensitive |
| O=S(=O)(F)Cc1ccccc1 [PMSF, phenylmethanesulphonylfluoride] |  |  |  |  |  | effect of inhibitor on PIII [5]: inhibited; % Residual activity PIII, final conc. 1 mM ([5]; pH 2.8, 10 min preincubation): 53.5%; % Residual activity PI & II, final conc. 1 mM ([6]; pH 2.8, 10 min preincubation): 102.2% |
| [Ag+] [Ag+] | 95.0 | 245.8 | 102.2 | 219.3 |  |  |
| [Pb+2] [Pb++] | 96.9 | 250.7 | 99.7 | 214.0 |  | effect of metal ion on PIII [1]: didn't inhibit; PIII activity detected, addition order of buffer and inhibitor solution reversed ([1]; reversed addition order): 20.7% |

| Molecule | PIII % Retention [1] [%] | PIII Activity (HU/ml) [1] [HU/ml] | PI & II % Retention [2] [%] | PI & II Activity (HU/ml) [2] [HU/ml] | Optimum pH [3] | other results |
| --- | --- | --- | --- | --- | --- | --- |
| [Ca+2] [Ca++] | 99.2 | 256.7 | 97.5 | 209.4 |  |  |
| Kallikrein |  |  |  |  | 8.6-8.8 |  |
| Pepsin |  |  |  |  | 1.7-2.0 | General proteolysis ([3]; Table 7, graded + to +++, literature): ++ + |
| [Cu+2] [Cu++] | 18.0 | 46.7 | 95.7 | 205.4 |  | effect of cupric ion on PIII at 1 mM ([1]; 1 mM cupric ion): Almost total inactivation; effect of metal ion on PIII [1]: very sensitive; effect of cupric ion on PI&II at or below 1 mM ([2]; at or below 1 mM cupric ion): not sensitive |
| Cl.N[C@@H](CS)C(=O)O [Cysteine-HCl] |  |  |  |  |  | optimum concentration for stabilizing P2.2, reagent alone [4]: 2.5 mM |
| NC(=O)CI [Iodoacetamide] |  |  |  |  |  | effect of inhibitor on PIII [5]: inhibited; % Residual activity PIII, final conc. 1 mM ([5]; pH 2.8, 10 min preincubation): 78.3%; % Residual activity PI & II, final conc. 1 mM ([6]; pH 2.8, 10 min preincubation): 98.9% |
| CC(C)CC(=O)N[C@H](C(=O)N[C@H](C(=O)N[C@@H](CC(C)C)[C@@H](O)CC(=O)N[C@@H](C)C(=O)N[C@@H](CC(C)C)[C@@H](O)CC(=O)O)C(C)C)C(C)C [Pepstatin] (Isovaleryl-VV[Sta]A[Sta]-OH) |  |  |  |  |  | % Residual activity PIII, final conc. 1 ug/ml [5, 11]: 99.4%; effect of inhibitor on PI&II [6]: strongly inhibited; % Residual activity PI & II, final conc. 1 ug/ml [6, 11]: 25.0% |
| [Mg+2] [Mg++] | 98.2 | 254.0 | 98.5 | 211.4 |  |  |
| [Co+2] [Co++] | 90.7 | 234.7 | 96.9 | 208.0 |  |  |
| [Zn+2] [Zn++] | 103.1 | 266.7 | 90.4 | 194.0 |  |  |
| Cathepsin G |  |  |  |  | ~ 7.5 |  |
| Renin |  |  |  |  | 5.5-8.0 |  |
| Urokinase |  |  |  |  | 7.5-7.6 |  |
| Cc1ccc(S(=O)(=O)NC(Cc2ccccc2)C(=O)CCl)cc1 (stereo not drawn) [TPCK, tosylphenylalanine chloromethyl ketone] |  |  |  |  |  | effect of inhibitor on PIII [5]: inhibited; % Residual activity PIII, final conc. 1 mM ([5]; pH 2.8, 10 min preincubation): 21.2%; % Residual activity PI & II, final conc. 1 mM ([6]; pH 2.8, 10 min preincubation): 96.4% |
| cathepsin L: thiol proteinase, liver |  |  |  |  | 5.0-5.5 |  |
| CCCC[C@H](NC(=O)C=[N+]=[N-])C(=O)OC [DNME, diazoacetylnorleucine methyl ester] |  |  |  |  |  | effect of inhibitor on PIII [5]: very sensitive; % Residual activity PIII, final conc. 1 mM ([5]; pH 2.8, 10 min preincubation): 64.9%; % Residual activity PI & II, final conc. 1 mM ([6]; pH 2.8, 10 min preincubation): 100.0%; effect of DNME on PI&II in the presence of cupric ions ([6]; with cupric ions, up to 4 hours of preincubation): not sensitive |
| Gastricin: carboxyl proteinase, stomach (protein, UniProt P20142 60-388, looked up) Gastricsin: SVTYEPMAYMDAAYFGEISIGTPPQNFLVLFDTGSSNLWVPSVYCQSQACTSHSRFNPSESSTYSTNGQTFSLQYGSGSLTGFFGYDTLTVQSIQVPNQEFGLSENEPGTNFVYAQFDGIMGLAYPALSVDEATTAMQGMVQEGALTSPVFSVYLSNQQGSSGGAVVFGGVDSSLYTGQIYWAPVTQELYWQIGIEEFLIGGQASGWCSEGCQAIVDTGTSLLTVPQQYMSALLQATGAQEDEYGQFLVNCNSIQNLPSLTFIINGVEFPLPPSSYILSNNGYCTVGVEPTYLSSQNGQPLWILGDVFLRSYYSVYDLGNNRVGFATAA |  |  |  |  | 3.0 |  |
